# Experimental data taken from ChEMBL document CHEMBL3227927, “Synthesis and hypoglycemic activity of pyridyl alcohols” (J Med Chem, 1979).
# Calls of active or inactive are those of the source. The calls are words filed in the database; no cut-off is given here.
# Experiments:
# Rattus norvegicus [1] = assay: Hypoglycemic activity in 48 hrs fasted Charles River rat at 150 mg/kg, po measured at 1 hr relative to control; format: functional
# Rattus norvegicus [2] = assay: Hypoglycemic activity in 48 hrs fasted Charles River rat at 150 mg/kg, po measured at 4 hrs relative to control; format: functional
# Rattus norvegicus [3] = species: Rattus norvegicus; assay: Toxicity in rat assessed as mortality measured up to 24 hrs; format: organism-based; details: in vivo
# Rattus norvegicus [4] = species: Rattus norvegicus; assay: Toxicity in rat assessed as increase in hepatic triglyceride level measured up to 24 hrs; format: organism-based; details: in vivo
# Rattus norvegicus [5] = assay: Hypoglycemic activity in 48 hrs fasted Charles River rat at 150 mg/kg, po measured at 2 hrs relative to control; format: functional
# Rattus norvegicus [6] = assay: Hypoglycemic activity in 48 hrs fasted Charles River rat at 200 mg/kg, po measured at 2 hrs relative to control; format: functional
# Rattus norvegicus [7] = assay: Hypoglycemic activity in 48 hrs fasted Charles River rat at 200 mg/kg, po measured at 4 hrs relative to control; format: functional
# Rattus norvegicus [8] = assay: Hypoglycemic activity in 48 hrs fasted Charles River rat at 200 mg/kg, po measured at 1 hr relative to control; format: functional
# Rattus norvegicus [9] = assay: Hypoglycemic activity in 48 hrs fasted Charles River rat at 150 mg/kg, po measured at 5 hrs relative to control; format: functional
# Rattus norvegicus [10] = assay: Hypoglycemic activity in 48 hrs fasted Charles River rat at 260 mg/kg, po measured at 2 hrs relative to control; format: functional
# Rattus norvegicus [11] = assay: Hypoglycemic activity in 48 hrs fasted Charles River rat at 260 mg/kg, po measured at 4 hrs relative to control; format: functional
# Rattus norvegicus [12] = assay: Hypoglycemic activity in 48 hrs fasted Charles River rat at 260 mg/kg, po measured at 1 hr relative to control; format: functional
# Rattus norvegicus [13] = assay: Hypoglycemic activity in 48 hrs fasted Charles River rat at 300 mg/kg, ip measured at 2 hrs relative to control; format: functional; details: route intraperitoneal
# Rattus norvegicus [14] = assay: Hypoglycemic activity in 48 hrs fasted Charles River rat at 300 mg/kg, ip measured at 1 hr relative to control; format: functional; details: route intraperitoneal
# Rattus norvegicus [15] = assay: Hypoglycemic activity in 48 hrs fasted Charles River rat at 300 mg/kg, ip measured at 4 hrs relative to control; format: functional; details: route intraperitoneal
# Rattus norvegicus [16] = assay: Hypoglycemic activity in 48 hrs fasted Charles River rat at 300 mg/kg, po measured at 2 hrs relative to control; format: functional
# Rattus norvegicus [17] = assay: Hypoglycemic activity in 48 hrs fasted Charles River rat at 300 mg/kg, po measured at 4 hrs relative to control; format: functional
# Rattus norvegicus [18] = assay: Hypoglycemic activity in 48 hrs fasted Charles River rat at 300 mg/kg, po measured at 1 hr relative to control; format: functional
# Rattus norvegicus [19] = assay: Hypoglycemic activity in 48 hrs fasted Charles River rat at 150 mg/kg, po measured at 7 hrs relative to control; format: functional, organism-based; parameters: dose 150 mg/kg
# Rattus norvegicus [20] = species: Rattus norvegicus; assay: Toxicity in rat assessed as mortality measured at 6 hrs; format: organism-based; details: in vivo
# Rattus norvegicus [21] = assay: Hypoglycemic activity in 48 hrs fasted Charles River rat at 50 mg/kg measured at 7 hrs relative to control; format: functional, organism-based; parameters: dose 50 mg/kg
# Rattus norvegicus [22] = assay: Toxicity in rat assessed as increase in hepatic triglyceride level at 50 mg/kg measured after 4 hrs relative to control; format: organism-based; parameters: dose 50 mg/kg; details: in vivo
Structure (SMILES),Activity (Rattus norvegicus [1]),Activity (Rattus norvegicus [2]),Activity (Rattus norvegicus [5]),also measured
Cc1cnc(CCCO)c(C)c1.Cl,27%,-72%,-39%,Activity (Rattus norvegicus [3]): Toxic; Activity (Rattus norvegicus [4]): Toxic
CCCCNC(=O)NS(=O)(=O)c1ccc(C)cc1 [TOLBUTAMIDE],,,,Activity (Rattus norvegicus [6]): 47%; Activity (Rattus norvegicus [7]): 48%; Activity (Rattus norvegicus [8]): 28%
Cc1cnc(CO)c(C)c1.Cl,-12%,-1%,-17%,Activity (Rattus norvegicus [9]): -9%
Cc1cccnc1CCCCO,-9%,0%,-9%,
Cc1cccnc1CCO,-8%,8%,-14%,
Cc1ccc(CCCO)nc1.[O-][Cl+3]([O-])([O-])O,,,,Activity (Rattus norvegicus [10]): -1%; Activity (Rattus norvegicus [11]): 18%; Activity (Rattus norvegicus [12]): 0%
Cc1cccnc1C.Cl,0%,8%,-5%,
Cc1cc2ccccc2nc1CCCO.Cl,16%,-10%,-9%,
Cc1ccc[n+]([O-])c1CCCO,-6%,-8%,-3%,
Cc1cccnc1CC(O)C(Cl)(Cl)Cl.Cl (centres undefined),-16%,-16%,-29%,
Cc1ncccc1CCCO.[O-][Cl+3]([O-])([O-])O,-4%,-1%,-8%,
Cc1ncccc1CO.Cl,-3%,-11%,1%,
CC1CCCNC1CCCO.Cl (centres undefined),-15%,-6%,-3%,
Cc1cccnc1/C=C/C(=O)O,-5%,23%,4%,
OCCCc1ccncc1,17%,33%,14%,
Cc1cccnc1CCC(C)(C)O.[O-][Cl+3]([O-])([O-])O,6%,-10%,-7%,
Cc1cccnc1C(=O)O,,,,Activity (Rattus norvegicus [13]): -9%; Activity (Rattus norvegicus [14]): -8%; Activity (Rattus norvegicus [15]): -15%

Structure (SMILES),Activity (Rattus norvegicus [1]),Activity (Rattus norvegicus [2]),Activity (Rattus norvegicus [5]),also measured
OCCCc1ccccn1,,46%,9%,Activity (Rattus norvegicus [9]): 42%
C[n+]1cccc(CCCO)c1.[I-],-13%,-12%,-14%,
Cc1cccnc1CCCS,-9%,-18%,-14%,
CC(=O)OCCCc1ncccc1C,21%,-73%,-34%,Activity (Rattus norvegicus [3]): Toxic; Activity (Rattus norvegicus [4]): Toxic
OC(Cc1ccccn1)C(Cl)(Cl)Cl (centres undefined),,,,Activity (Rattus norvegicus [16]): 40%; Activity (Rattus norvegicus [17]): 101%; Activity (Rattus norvegicus [18]): 24%
OCCCc1cccnc1,3%,-24%,-12%,Activity (Rattus norvegicus [19]): Active
Cc1cccnc1CCC(=O)O,5%,-85%,-28%,Activity (Rattus norvegicus [20]): Toxic; Activity (Rattus norvegicus [3]): Toxic; Activity (Rattus norvegicus [4]): Toxic; Activity (Rattus norvegicus [9]): -90%
Cc1cccnc1CC(C)O.Cl (centres undefined),3%,-12%,-3%,
Cc1cccnc1CO.Cl,-9%,3%,0%,
COCCCc1ncccc1C,-15%,-29%,-14%,Activity (Rattus norvegicus [3]): Toxic; Activity (Rattus norvegicus [4]): Toxic; Activity (Rattus norvegicus [9]): -52%
CC(=O)Cc1ncccc1C,-12%,-8%,-14%,
Cc1cccnc1CCCO,-22%,-68%,-18%,Activity (Rattus norvegicus [21]): Active; Activity (Rattus norvegicus [3]): Toxic; Activity (Rattus norvegicus [9]): -87%; fold change (FC) (Rattus norvegicus [22]): 10
OCc1ccccn1 [PICONOL],4%,2%,6%,
OCc1ccncc1 [PYRIDINE 4-METHANOL],4%,-4%,0%,
OCc1cccnc1 [NICOTINYL ALCOHOL],11%,-19%,-3%,
Cc1cccnc1CC(O)C(=O)O.Cl (centres undefined),-9%,-1%,-5%,
Cc1ccc[n+](C)c1CCCO.[I-],-1%,-14%,3%,
